Reference: patent US10040798B2, “Pyrrolopyridazine inhibitors of IRAK4 activity” (MERCK SHARP & DOHME CORP., priority 2015, dated 2018)
Where a name gives a salt, the structure may show the parent alone.

Biological target: IRAK4 (Homo sapiens (Human), UniProt Q9NWZ3)
Assay: IRAK4 Kinase Assay (IMAP fluorescence polarization)
Type: biochemical
Conditions: 0.5 nM GST tagged IRAK4, 100 μM ATP, 30 minutes at 25° C., IMAP FP
Description: The kinase activity of IRAK4 is determined by its ability to catalyze the phosphorylation of a fluorescent polypeptide substrate. The extent of phosphorylation is measured using the IMAP technology (Molecular Devices) where the phosphorylated fluorescent substrate binds to the large M (III)-based nanoparticles which reduces the rotational speed of the substrate and thus increases its fluorescent polarization (FP).
20 μL reaction mixture contains 10 mM TriHCl, pH 7.2, 0.5 nM GST tagged IRAK4 (SignalChem), 100 nM fluorescent peptide substrate (RP7030, Molecular Devices), 100 μM ATP, 1 mM DDT, 1 mM MgCl2, and 0.01% Tween 20. The reaction is initiated by the addition of ATP. After incubation for 30 minutes at 25° C., 60 μL of Progressive IMAP Reagent (Molecular Devices) is added to stop the reaction. Change in RP7030's FP is determined by a FP reader (Analyst HT, LJL BioSystems).

Sequence of IRAK4 (Q9NWZ3 whole entry): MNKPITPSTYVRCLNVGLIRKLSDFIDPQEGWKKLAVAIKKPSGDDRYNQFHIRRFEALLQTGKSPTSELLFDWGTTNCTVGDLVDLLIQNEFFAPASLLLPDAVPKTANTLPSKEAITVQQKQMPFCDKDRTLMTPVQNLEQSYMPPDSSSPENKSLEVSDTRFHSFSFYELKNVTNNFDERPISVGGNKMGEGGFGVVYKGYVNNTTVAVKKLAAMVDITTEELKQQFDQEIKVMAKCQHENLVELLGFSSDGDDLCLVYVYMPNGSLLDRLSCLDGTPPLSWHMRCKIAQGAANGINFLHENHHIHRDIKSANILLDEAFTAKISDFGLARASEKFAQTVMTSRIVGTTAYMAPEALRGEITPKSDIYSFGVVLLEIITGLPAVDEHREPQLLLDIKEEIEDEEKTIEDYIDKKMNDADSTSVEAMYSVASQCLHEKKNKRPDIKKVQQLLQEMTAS

Structure (SMILES)	IC50 [nM]
Cn1cc(NC(=O)c2ccc3ccc(N4C5CCC4CNC5)nn23)c(C(F)(F)F)n1 [Example 120, 2-(3,8-diazabicyclo[3.2.1]oct-8-yl)-N-[1-methyl-3-(trifluoromethyl)-1H-pyrazol-4-yl]pyrrolo[1,2-b]pyridazine-7-carboxamide trifluoroacetate]	2
Cn1cc(NC(=O)c2ccc3ccc(N4CC5CCC4CN5)nn23)c(Cl)n1 (centres unmarked) [Example 26, N-(3-chloro-1-methyl-1H-pyrazol-4-yl)-2-(2,5-diazabicyclo[2.2.2]oct-2-yl)pyrrolo[1,2-b]pyridazine-7-carboxamide trifluoroacetate]	28
Cn1cc(NC(=O)c2ccc3ccc(N4CC5CCC(C4)N5)nn23)c(C(F)F)n1 [Example 46, 2-(3,8-diazabicyclo[3.2.1]oct-3-yl)-N-[3-(difluoromethyl)-1-methyl-1H-pyrazol-4-yl]pyrrolo[1,2-b]pyridazine-7-carboxamide trifluoroacetate]	1
N[C@H]1CCCC[C@H]1Nc1ccc2ccc(C(=O)Nc3cscc3Br)n2n1 [Example 63, 2-{[(1R,2S)-2-aminocyclohexyl]amino}-N-(4-bromothiophen-3-yl)pyrrolo[1,2-b]pyridazine-7-carboxamide trifluoroacetate]	7
O=C(Nc1ccsc1Br)c1ccc2ccc(N3C[C@@H]4CC[C@H]3CN4)nn12 (single isomer, unassigned) [Example 78, N-(2-bromothiophen-3-yl)-2-[(1S,4S)- or (1R,4R)-2,5-diazabicyclo[2.2.2]oct-2-yl]pyrrolo[1,2-b]pyridazine-7-carboxamide trifluoroacetate]	697
O=C(Nc1ccccc1Cl)c1ccc2ccc(N3CC4CCC3CN4)nn12 (centres unmarked) [Example 64, N-(2-chlorophenyl)-2-(2,5-diazabicyclo[2.2.2]oct-2-yl)pyrrolo[1,2-b]pyridazine-7-carboxamide trifluoroacetate]	611
N#Cc1sccc1NC(=O)c1ccc2ccc(N3C[C@H]4CC[C@@H]3CN4)nn12 (single isomer, unassigned) [Example 81, N-(2-cyanothiophen-3-yl)-2-[(1S,4S)- or (1R,4R)-2,5-diazabicyclo[2.2.2]oct-2-yl]pyrrolo[1,2-b]pyridazine-7-carboxamide formate]	356
O=C(Nc1ccccc1Br)c1ccc2ccc(N3CCCNCC3)nn12 [Example 57, N-(2-bromophenyl)-2-(1,4-diazepan-1-yl)pyrrolo[1,2-b]pyridazine-7-carboxamide trifluoroacetate]	3960
N[C@@H]1[C@H](Nc2ccc3ccc(C(=O)Nc4ccsc4C(F)(F)F)n3n2)CCCC1(F)F [Example 117, 2-{[(1R,2R)-2-amino-3,3-difluorocyclohexyyl]amino}-N-[2-(trifluoromethyl)thiophen-3-yl]pyrrolo[1,2-b]pyridazine-7-carboxamide trifluoroacetate]	2980
O=C(Nc1cscc1Cl)c1ccc2ccc(N3C[C@@H]4CC[C@H]3CN4)nn12 (single isomer, unassigned) [Example 83, N-(4-chlorothiophen-3-yl)-2-[(1S,4S)- or (1R,4R)-2,5-diazabicyclo[2.2.2]oct-2-yl]pyrrolo[1,2-b]pyridazine-7-carboxamide trifluoroacetate]	188
N[C@H]1CCCC[C@H]1Nc1ccc2ccc(C(=O)Nc3ccsc3Br)n2n1 [Example 77, 2-{[(1R,2S)-2-aminocyclohexyl]amino}-N-(2-bromothiophen-3-yl)pyrrolo[1,2-b]pyridazine-7-carboxamide trifluoroacetate]	11
N[C@@H]1[C@H](Nc2ccc3ccc(C(=O)Nc4cscc4C(F)F)n3n2)CCCC1(F)F [Example 96, 2-{[(1R,2R)-2-amino-3,3-difluoro-cyclohexyl]amino}-N-[4-(difluoro-methyl)thiophen-3-yl]pyrrolo[1,2-b]pyridazine-7-carboxamide trifluoroacetate]	753
N[C@@H]1[C@H](Nc2ccc3ccc(C(=O)Nc4ccccc4Br)n3n2)CCCC1(F)F [Example 94, 2-{[(1R,2R)-2-amino-3,3-difluoro-cyclohexyl]amino}-N-(2-bromophenyl)pyrrolo[1,2-b]pyridazine-7-carboxamide trifluoroacetate]	5630
N[C@H]1CCCC[C@H]1Nc1ccc2ccc(C(=O)Nc3cscc3Cl)n2n1 [Example 85, 2-{[(1R,2S)-2-aminocyclohexyl]amino}-N-(4-chlorothiophen-3-yl)pyrrolo[1,2-b]pyridazine-7-carboxamide trifluoroacetate]	2
N#Cc1ccccc1NC(=O)c1ccc2ccc(N[C@@H]3CCCC(F)(F)[C@@H]3N)nn12 [Example 110, 2-{[(1R,2R)-2-amino-3,3-difluorocyclohexyl]amino}-N-(2-cyanophenyl)pyrrolo [1,2-b]pyridazine-7-carboxamide trifluoroacetate]	825
O=C(Nc1cscc1C(F)F)c1ccc2ccc(N3CC4CCC3CN4)nn12 (centres unmarked) [Example 56, 2-(2,5-diazabicyclo[2.2.2]oct-2-yl)-N-[4-(difluoromethyl)thiophen-3-yl]pyrrolo[1,2-b]pyridazine-7-carboxamide trifluoroacetate]	95

Now from value to compound:

IC50 [nM]	Structure (SMILES)
2	Cn1cc(NC(=O)c2ccc3ccc(N4CCNCC5(CC5)C4)nn23)c(C(F)F)n1 [Example 18, 2-(5,8-diazaspiro[2.6]non-5-yl)-N-[3-(difluoromethyl)-1-methyl-1H-pyrazol-4-yl]pyrrolo[1,2-b]pyridazine-7-carboxamide trifluoroacetate]
2	Cn1cc(NC(=O)c2ccc3ccc(N[C@H]4CCCCNC4)nn23)c(C(F)(F)F)n1 (single isomer, unassigned) [Example 40, 2-[(3R)- or (3S)-azepan-3-ylamino]-N-[1-methyl-3-(trifluoromethyl)-1H-pyrazol-4-yl]pyrrolo[1,2-b]pyridazine-7-carboxamide trifluoroacetate]
2	Cn1cc(NC(=O)c2ccc3ccc(N4CCCNCC4)nn23)c(C(F)F)n1 [Example 15, 2-(1,4-diazepan-1-yl)-N-[3-(difluoromethyl)-1-methyl-1H-pyrazol-4-yl]pyrrolo[1,2-b]pyridazine-7-carboxamide trifluoroacetate]
25	Cn1cc(NC(=O)c2ccc3ccc(N4C[C@@H]5CC[C@H]4CN5)nn23)c(C#N)n1 (single isomer, unassigned) [Example 43, N-(3-cyano-1-methyl-1H-pyrazol-4-yl)-2-[(1S,4S)- or (1R,4R)-2,5-diazabicyclo[2.2.2]oct-2-yl]pyrrolo[1,2-b]pyridazine-7-carboxamide trifluoroacetate]
5	Cn1cc(NC(=O)c2ccc3ccc(N4C[C@@H]5CNC[C@H]4C5)nn23)c(C(F)F)n1 (single isomer, unassigned) [Example 125, 2-[(1S,5R)- or (1R,5S)-3,6-diazabicyclo[3.2.1]oct-6-yl]-N-[3-(difluoromethyl)-1-methyl-1H-pyrazol-4-yl]pyrrolo[1,2-b]pyridazine-7-carboxamide]
5	Cn1cc(NC(=O)c2ccc3ccc(N[C@@H]4CCCC[C@@H]4N)nn23)c(C(F)(F)F)n1 [Example 1, 2-(((1R,2S)-2-Aminocyclohexyl)amino)-N-(1-methyl-3-(trifluoromethyl)-1H-pyrazol-4-yl)pyrrolo[1,2-b]pyridazine-7-carboxamide]
1	Cn1cc(NC(=O)c2ccc3ccc(N[C@@H]4CCCC[C@@H]4N)nn23)c(C(F)F)n1 [Example 19, 2-{[(1R,2S)-2-aminocyclo-hexyl]amino}-N-[3-(difluoromethyl)-1-methyl-1H-pyrazol-4-yl]pyrrolo[1,2-b]pyridazine-7-carboxamide trifluoroacetate]
0.9	Cn1cc(NC(=O)c2ccc3ccc(N[C@@H]4CCCNC4)nn23)c(C(F)F)n1 [Example 16, N-[3-(difluoromethyl)-1-methyl-1H-pyrazol-4-yl]-2-[(3R)-piperidin-3-ylamino]pyrrolo[1,2-b]pyridazine-7-carboxamide trifluoroacetate]
2	Cn1cc(NC(=O)c2ccc3ccc(NC4CCCCNC4)nn23)c(C(F)F)n1 (centres unmarked) [Example 24, 2-(azepan-3-ylamino)-N-[3-(difluoromethyl)-1-methyl-1H-pyrazol-4-yl]pyrrolo[1,2-b]pyridazine-7-carboxamide trifluoroacetate]
0.5	Cn1cc(NC(=O)c2ccc3ccc(N4CCC[C@@H](N)C4)nn23)c(C(F)(F)F)n1 [Example 12, 2-[(3R)-3-aminopiperidin-1-yl]-N-[1-methyl-3-(trifluoromethyl)-1H-pyrazol-4-yl]pyrrolo[1,2-b]pyridazine-7-carboxamide trifluoroacetate]
2	Cn1cc(NC(=O)c2ccc3ccc(N[C@@H]4CCCC[C@@H]4N)nn23)c(Br)n1 [Example 22, 2-{[(1R,2S)-2-amino-cyclohexyl]amino}-N-(3-bromo-1-methyl-1H-pyrazol-4-yl)pyrrolo[1,2-b]pyridazine-7-carboxamide trifluoroacetate]
55	Cn1cc(NC(=O)c2ccc3ccc(N[C@@H]4CCCC[C@@H]4O)nn23)c(Cl)n1 [Example 53, N-(3-chloro-1-methyl-1H-pyrazol-4-yl)-2-{[(1R,2S)-2-hydroxycyclohexyl]amino}pyrrolo[1,2-b]pyridazine-7-carboxamide trifluoroacetate]
25	Cn1cc(NC(=O)c2ccc3ccc(N4CC5CCC4CN5)nn23)c(C#N)n1 (centres unmarked) [Example 31, N-(3-cyano-1-methyl-1H-pyrazol-4-yl)-2-(2,5-diazabicyclo[2.2.2]oct-2-yl)pyrrolo[1,2-b]pyridazine-7-carboxamide trifluoroacetate]
